Measurements as given in US20250171465A1, “AKT INHIBITORS” (Stablix, Inc., priority 2023, published 2025).

system: KU1919.1; assay: Cell Titer Glo (CTG) proliferation assay, KU1919; assay type: cell-based; settings: Homo sapiens, KU-19-19; KU1919.1 cells, 72.0 hrs.; read-out: AVE CTG Proliferation KU1919.1 72.0 hrs.
Method: Seed cells in 40 μL of cell culture media into each well of 384-well cell culture plate, spin them at room temperature at 1,000 RPM for 1 minute and then transfer the plates into 37° C. 5% CO2 incubator overnight. Next day, treat cells with 40 nL of diluted compound and return to incubator. After compound treatment for 3 days, Add 30 μL of CellTiter-Glo reagent (Promega) into each well to be detected. Then place the plates at room temperature for 30 min followed by reading on EnVision. Inhibition activity calculated as % DMSO=100×(LumSample-Lum low control)/(Lum high control-Lum low control) where high control is from cells treated with 0.1% DMSO and Low control obtained from PBS only. Use XLFit (equation 201) to calculate IC50 (A+ ((B−A)/(1[…]((x/C)^D)))) where A: Bottom, B: Top, C: IC50, D: Slope.

| Structure (SMILES) | IC50 [nM] |
| --- | --- |
| CC1(C(=O)N2CCCC(c3cccc(C(=O)N[C@@H](C(=O)NCCCCCOCC[C@H](NC(=O)C4(N)CCN(c5ncnc6[nH]ccc56)CC4)c4ccc(Cl)cc4)C4CCCCC4)c3)C2)CC1 (stereo partly shown) [Compound I-297] | 5000 to 10000 |
| C[C@@H]1C[C@@H](O)c2ncnc(N3CCN(C(=O)[C@H](CN4CCC(OC5CCN(C(=O)[C@H](NC(=O)OC(C)(C)C)C6CCCCC6)CC5)CC4)c4ccc(Cl)cc4)CC3)c21 [Compound I-276] | 1000 to 5000 |
| NC1(C(=O)N[C@@H](CCN2CCN(C(=O)CN3CCC(OC4CCN(C(=O)[C@H](NC(=O)c5ccc(C6CN(C(=O)C7CC7)C6)cc5)C5CCCCC5)CC4)CC3)CC2)c2ccc(Cl)cc2)CCN(c2ncnc3[nH]ccc23)CC1 [Compound I-229] | 1000 to 5000 |
| NC1(C(=O)N[C@@H](CCN2CCN(C(=O)C34CCC(CN5CCN(C(=O)c6cccc(C7CCCN(C(=O)C8CC8)C7)c6)CC5)(CC3)OC4)CC2)c2ccc(Cl)cc2)CCN(c2ncnc3[nH]ccc23)CC1 (stereo partly shown) [Compound I-246] | 1000 to 5000 |
| NC1(C(=O)N[C@@H](CCN2CCC(OC3CCN(C(=O)[C@H](NC(=O)c4cccc(C5CN(C(=O)C6CC6)C5)c4)C4CCCCC4)CC3)CC2)c2ccc(Cl)cc2)CCN(c2ncnc3[nH]ccc23)CC1 [Compound I-243] | 1000 to 5000 |
| NC1(C(=O)N[C@@H](CCN2CCC(OC3CCN(C(=O)[C@H](NC(=O)c4cccc(C5CCCN(C(=O)CNCc6ccc(F)cc6F)C5)c4)C4CCCCC4)CC3)CC2)c2ccc(Cl)cc2)CCN(c2ncnc3[nH]ccc23)CC1 (stereo partly shown) [Compound I-251] | 500 to 1000 |
| C[C@@H]1C[C@@H](O)c2ncnc(N3CCN(C(=O)[C@H](CNCCNC(=O)CN4CCC(OC5CCN(C(=O)OC(C)(C)C)CC5)CC4)c4ccc(Cl)cc4)CC3)c21 [Compound I-314] | 1000 to 5000 |
| C=CC(=O)N1CCN(c2ccc(CCC(=O)N3CCC(OC4CCN(CC[C@H](NC(=O)C5(N)CCN(c6ncnc7[nH]ccc67)CC5)c5ccc(Cl)cc5)CC4)CC3)o2)C(=O)C1 [Compound I-285] | > 10000 |
| NC1(C(=O)N[C@@H](CCN2CCC(OC3CCN(C(=O)[C@H](NC(=O)c4cccc(C5CCN(C(=O)C6CC6)CC5)c4F)C4CCCCC4)CC3)CC2)c2ccc(Cl)cc2)CCN(c2ncnc3[nH]ccc23)CC1 [Compound I-288] | 1000 to 5000 |
| NC1(C(=O)N[C@@H](CCOCCN2CCC(OC3CCN(C(=O)[C@H](NC(=O)c4cccc(C5CCCN(C(=O)CNCc6ccc(F)cc6F)C5)c4)C4CCCCC4)CC3)CC2)c2ccc(Cl)cc2)CCN(c2ncnc3[nH]ccc23)CC1 (stereo partly shown) [Compound I-236] | 500 to 1000 |
| C[C@@H]1C[C@@H](O)c2ncnc(N3CCN(C(=O)[C@H](CCN4CCC(CN5CCN(C(=O)[C@H](NC(=O)c6cccc(C7CCCN(C(=O)CNCc8ccc(F)cc8F)C7)c6)C6CCCCC6)CC5)CC4)c4ccc(Cl)cc4)CC3)c21 (stereo partly shown) [Compound I-274] | 500 to 1000 |
| C=CC(=O)N1CCN(c2ccc(CCC(=O)NCCOCCNCC[C@H](NC(=O)C3(N)CCN(c4ncnc5[nH]ccc45)CC3)c3ccc(Cl)cc3)o2)C(=O)C1 [Compound I-287] | > 10000 |
| NC1(C(=O)N[C@@H](CCOCCN2CCC(OC3CCN(C(=O)[C@H](NC(=O)c4cccc(C5CCCN(C(=O)C67CC(C6)C7)C5)c4)C4CCCCC4)CC3)CC2)c2ccc(Cl)cc2)CCN(c2ncnc3[nH]ccc23)CC1 (stereo partly shown) [Compound I-293] | 1000 to 5000 |
| C=CC(=O)N1CCN(c2ccc(CCC(=O)N3CCN(CC4CCN(CC[C@H](NC(=O)C5(N)CCN(c6ncnc7[nH]ccc67)CC5)c5ccc(Cl)cc5)CC4)CC3)o2)C(=O)C1 [Compound I-286] | 1000 to 5000 |
| C[C@@H]1C[C@@H](O)c2ncnc(N3CCN(C(=O)[C@@H](CCN4CCC(CN5CCN(C(=O)[C@H](NC(=O)c6cccc(C7CCCN(C(=O)C8CC8)C7)c6)C6CCCCC6)CC5)CC4)c4ccc(Cl)cc4)CC3)c21 (stereo partly shown) [Compound I-266] | 1000 to 5000 |
| C[C@@H]1C[C@@H](O)c2ncnc(N3CCN(C(=O)[C@H](CCN4CCC(CN5CCN(C(=O)[C@H](NC(=O)c6cccc(C7CCCN(C(=O)CNC8CC8)C7)c6)C6CCCCC6)CC5)CC4)c4ccc(Cl)cc4)CC3)c21 (stereo partly shown) [Compound I-272] | 1000 to 5000 |
